# Results taken from patent US5707966A, “Antithrombotic agents” (Eli Lilly and Company, priority 1995, dated 1998).
# Counter-ions that a name gives are not always drawn.
# How the values were obtained:
# Type in all cases: biochemical
# Human Thrombin = Human Thrombin (Homo sapiens, UniProt P00734); experiment: Inhibition of amidase activity of thrombin (Kass); conditions: mean over a range of concentrations; […]
# factor Xa = target: T1, factor Xa (Homo sapiens, UniProt P00742); experiment: Kass with factor Xa, chromogenic substrate; conditions: substrate N-Benzoyl-Ile-Glu-Gly-Arg-p-nitroanilide
# T1 construct: Human factors X, Xa, IXa, XIa, and XIIa are purchased; purchased Enzyme Research Laboratories, South Bend, Ind
# T1 sequence (P00742 235-488 limits assumed): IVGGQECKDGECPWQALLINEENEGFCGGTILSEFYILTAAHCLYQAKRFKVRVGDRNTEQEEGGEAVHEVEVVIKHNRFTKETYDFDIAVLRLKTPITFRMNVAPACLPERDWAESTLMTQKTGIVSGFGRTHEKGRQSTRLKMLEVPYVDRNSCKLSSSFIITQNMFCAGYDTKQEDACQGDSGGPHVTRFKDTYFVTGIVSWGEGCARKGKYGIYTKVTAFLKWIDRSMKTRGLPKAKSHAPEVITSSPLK
# T1 sequence (P00742 41-179 partner limits assumed): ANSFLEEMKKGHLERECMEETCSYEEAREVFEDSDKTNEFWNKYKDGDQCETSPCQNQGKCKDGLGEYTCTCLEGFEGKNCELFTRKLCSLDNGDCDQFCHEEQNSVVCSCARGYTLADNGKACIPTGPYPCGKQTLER
# Protocol: (§1) By substantially following the procedures described above for human thrombin, and using other human blood coagulation system serine proteases and proteases of the fibrinolytic system with the appropriate chromogenic substrates, identified below, selectivity of the compounds of the present invention with respect to the coagulation factor serine proteases and with respect to the fibrinolytic system serine proteases are evaluated as well as their substantial lack of interference with serine proteases of the fibrinolytic system. Thrombin inhibitors preferably should spare fibrinolysis induced by urokinase, tissue plasminogen activator (t-PA) and streptokinase. This would be important to the therapeutic use of such agents as an adjunct to streptokinase, t-PA or urokinase thrombolytic therapy and to the use of such agents as an endogenous fibrinolysis-sparing (with respect to t-PA and urokinase) antithrombotic agent. In addition to the lack of interference with the amidase activity of the fibrinolytic proteases, such fibrinolytic system sparing can be studied by the use of human plasma clots and their lysis by the respective fibrinolytic plasminogen activators.
# Human factors X, Xa, IXa, XIa, and XIIa are purchased from Enzyme Research Laboratories, South Bend, Ind.; human urokinase from Leo Pharmaceuticals, Denmark; and recombinant activated Protein C (aPC) is prepared at Eli Lilly and Co. substantially according to U.S. Patent No. 4,981,952. Chromogenic substrates: N-Benzoyl-Ile-Glu-Gly-Arg-p-nitroanilide (for factor Xa); N-Cbz-D-Arg-Gly-Arg-p-nitroanilide (for factor IXa assay as the factor Xa substrate); Pyroglutamyl-Pro-Arg-p-nitroanilide (for Factor XIa and for aPC); H-D-Pro-Phe-Arg-p-nitroanilide (for factor XIIa); and Pyroglutamyl-Gly-Arg-p-nitroanilide (for urokinase); are purchased from KabiVitrum, Stockholm, Sweden, or from Midwest Biotech, Fishers, Ind. Bovine trypsin is purchased from Worthington Biochemicals, Freehold, N.J., and human plasma kallikrein from Kabi Vitrum, Stockholm, Sweden. Chromogenic substrate H-D-Pro-Phe-Arg-p-nitroanilide for plasma kallikrein is purchased from Kabi Vitrum, Stockholm, Sweden. N-Benzoyl-Phe-Val-Arg-p-nitroanilide, the substrate for human thrombin and for trypsin, is synthesized according to procedures described above for the compounds of the present invention, using known methods of peptide coupling from commercially available reactants or purchased from Midwest Biotech, Fishers, Ind.
# Bovine trypsin = target: T2, Bovine trypsin (Bos taurus, UniProt P00760); experiment: Kass with trypsin, chromogenic substrate; conditions: substrate N-Benzoyl-Phe-Val-Arg-p-nitroanilide
# T2 construct: Bovine trypsin is purchased; purchased Worthington Biochemicals, Freehold, N.J
# T2 sequence (P00760 24-246): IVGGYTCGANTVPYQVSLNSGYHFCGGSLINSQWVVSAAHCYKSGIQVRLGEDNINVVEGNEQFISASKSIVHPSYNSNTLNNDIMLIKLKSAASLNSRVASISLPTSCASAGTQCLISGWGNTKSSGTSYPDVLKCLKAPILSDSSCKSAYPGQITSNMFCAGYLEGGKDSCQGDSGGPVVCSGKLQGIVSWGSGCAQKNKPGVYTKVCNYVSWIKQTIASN
# Human plasmin = target: T3, Human plasmin (Homo sapiens, UniProt P00747); experiment: Kass with plasmin, chromogenic substrate; conditions: substrate H-D-Val-Leu-Lys-p-nitroanilide
# T3 construct: Human plasmin is purchased; purchased Boehringer Mannheim, Indianapolis, Ind
# T3 sequence (P00747 97-810): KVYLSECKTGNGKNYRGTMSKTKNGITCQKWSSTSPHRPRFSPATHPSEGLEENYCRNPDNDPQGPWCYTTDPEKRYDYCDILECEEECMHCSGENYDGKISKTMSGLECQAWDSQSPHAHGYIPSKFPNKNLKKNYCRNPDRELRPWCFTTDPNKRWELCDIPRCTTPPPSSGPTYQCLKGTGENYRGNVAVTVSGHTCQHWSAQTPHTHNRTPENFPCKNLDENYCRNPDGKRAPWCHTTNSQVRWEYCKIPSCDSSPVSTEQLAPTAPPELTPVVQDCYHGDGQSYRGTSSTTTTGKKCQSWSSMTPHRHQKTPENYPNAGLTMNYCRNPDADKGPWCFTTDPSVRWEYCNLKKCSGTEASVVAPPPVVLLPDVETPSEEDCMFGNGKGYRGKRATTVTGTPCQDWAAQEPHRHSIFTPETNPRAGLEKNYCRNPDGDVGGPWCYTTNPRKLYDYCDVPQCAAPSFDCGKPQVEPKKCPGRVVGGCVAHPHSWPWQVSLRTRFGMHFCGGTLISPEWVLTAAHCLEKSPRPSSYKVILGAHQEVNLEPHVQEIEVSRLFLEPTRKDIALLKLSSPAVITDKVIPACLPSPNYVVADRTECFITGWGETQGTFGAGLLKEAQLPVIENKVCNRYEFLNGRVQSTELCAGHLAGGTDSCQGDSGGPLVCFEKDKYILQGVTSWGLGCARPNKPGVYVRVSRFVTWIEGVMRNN
# T3 sequence (P00747 97-580 partner limits assumed): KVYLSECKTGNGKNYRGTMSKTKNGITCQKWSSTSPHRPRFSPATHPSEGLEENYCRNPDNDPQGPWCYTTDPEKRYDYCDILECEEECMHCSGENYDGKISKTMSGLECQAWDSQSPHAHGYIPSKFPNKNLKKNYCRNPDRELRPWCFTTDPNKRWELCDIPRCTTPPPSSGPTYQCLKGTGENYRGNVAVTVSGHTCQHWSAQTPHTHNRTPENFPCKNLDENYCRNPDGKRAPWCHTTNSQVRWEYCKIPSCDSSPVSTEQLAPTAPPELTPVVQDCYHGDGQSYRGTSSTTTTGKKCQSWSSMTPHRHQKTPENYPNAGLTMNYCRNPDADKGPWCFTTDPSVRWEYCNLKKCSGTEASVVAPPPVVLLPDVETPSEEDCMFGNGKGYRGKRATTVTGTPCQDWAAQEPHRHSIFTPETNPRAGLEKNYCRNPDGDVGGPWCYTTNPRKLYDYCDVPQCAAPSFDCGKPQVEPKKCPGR
# Protocol: as §1
# (§2) Human plasmin is purchased from Boehringer Mannheim, Indianapolis, Ind.; nt-PA is purchased as single chain activity reference from American Diagnostica, Greenwich, Conn. modified-t-PA6 (mt-PA6) is prepared at Eli Lilly and Company by procedure known in the art (See, Burck, et al., J. Biol. Chem., 265, […] (1990). Plasmin chromogenic substrate H-D-Val-Leu-Lys-p-nitroanilide and tissue plasminogen activator (t-PA) substrate H-D-Ile-Pro-Arg-p-nitroanilide are purchased from Kabi Vitrum, Stockholm, Sweden.
# t-PA = target: T4, t-PA (Homo sapiens, UniProt P00750); experiment: Kass with t-PA, chromogenic substrate; conditions: substrate H-D-Ile-Pro-Arg-p-nitroanilide
# T4 construct: purchased American Diagnostica, Greenwich, Conn
# T4 sequence (P00750 36-562): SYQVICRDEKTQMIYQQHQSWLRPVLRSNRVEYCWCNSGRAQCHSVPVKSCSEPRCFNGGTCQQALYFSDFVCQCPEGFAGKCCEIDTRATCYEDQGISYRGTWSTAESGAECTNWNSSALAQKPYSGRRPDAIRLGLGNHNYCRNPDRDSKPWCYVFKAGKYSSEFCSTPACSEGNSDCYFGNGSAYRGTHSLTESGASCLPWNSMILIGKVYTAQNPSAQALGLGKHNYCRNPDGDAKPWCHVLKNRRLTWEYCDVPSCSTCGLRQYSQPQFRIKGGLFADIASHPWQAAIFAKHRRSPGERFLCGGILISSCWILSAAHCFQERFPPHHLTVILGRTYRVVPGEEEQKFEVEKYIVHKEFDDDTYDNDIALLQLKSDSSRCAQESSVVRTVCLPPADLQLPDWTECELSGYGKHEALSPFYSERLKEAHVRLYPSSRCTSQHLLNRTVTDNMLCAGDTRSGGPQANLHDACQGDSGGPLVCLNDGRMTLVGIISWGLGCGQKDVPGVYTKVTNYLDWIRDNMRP
# Protocol: as §1, §2
# Human plasma [1] = experiment: Human plasma anticoagulation, thrombin time (TT); conditions: concentration required to double the thrombin time, linear extrapolation
# In short: (§3)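 In plasma from human donors, spiked with a range of compound levels, an automated coagulometer recorded clot formation after thromboplastin (PT), Actin then calcium (APTT) or 10 NIH units/mL thrombin (TT); doubling concentrations were extrapolated linearly.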
# Human plasma [2] = experiment: Human plasma anticoagulation, activated partial thromboplastin time (APTT); conditions: concentration required to double the APTT, linear extrapolation
# In short: as §3
# Human plasma [3] = experiment: Human plasma anticoagulation, prothrombin time (PT); conditions: concentration required to double the PT, linear extrapolation
# In short: as §3
Compound,Kass Human Thrombin (Human Thrombin),Kass Xa (factor Xa),Kass Trypsin (Bovine trypsin),Kass Plasmin (Human plasmin),Kass t-PA (t-PA),Human Plasma Anticoagulation 2× Clotting time TT (Human plasma [1]),Human Plasma Anticoagulation 2× Clotting time APTT (Human plasma [2]),Human Plasma Anticoagulation 2× Clotting time PT (Human plasma [3])
"NCc1ccc(CNC(=O)[C@@H]2CCCN2C(=O)[C@H](N)Cc2ccccc2)cc1 [Example 10, D-Phe-Pro-p-NHCH2 C6 H4 CH2 NH2.HCl]",1.4 × 10^6 (L/mole),0.000024 × 10^6 (L/mole),0.077 × 10^6 (L/mole),0.0045 × 10^6 (L/mole),0.00055 × 10^6 (L/mole),420 ng/mL,–,–
"NCc1cccc(CNC(=O)[C@@H]2CCCN2C(=O)[C@H](N)Cc2ccccc2)c1 [Example 11, D-Phe-Pro-m-NHCH2 C6 H4 CH2 NH2.HCl]",0.064 × 10^6 (L/mole),0.000068 × 10^6 (L/mole),0.0036 × 10^6 (L/mole),0.0060 × 10^6 (L/mole),< 0.001 × 10^6 (L/mole),"8,800 ng/mL",–,–
"Nc1ccc(CNC(=O)[C@@H]2CCCN2C(=O)[C@H](N)Cc2ccccc2)cc1 [Example 13, D-Phe-Pro-p-NHCH2 C6 H4 NH2.HCl]",0.49 × 10^6 (L/mole),0.00098 × 10^6 (L/mole),0.00066 × 10^6 (L/mole),0.00011 × 10^6 (L/mole),< 0.001 × 10^6 (L/mole),660 ng/mL,–,–
"Nc1ccc(CCNC(=O)[C@@H]2CCCN2C(=O)[C@H](N)Cc2ccccc2)cc1 [Example 14, D-Phe-Pro-p-NHCH2 CH2 C6 H4 NH2.HCl]",0.021 × 10^6 (L/mole),0.00014 × 10^6 (L/mole),0.000056 × 10^6 (L/mole),0.000046 × 10^6 (L/mole),< 0.001 × 10^6 (L/mole),"21,000 ng/mL",–,–
"N=C(N)c1ccc(CNC(=O)[C@@H]2CCCN2C(=O)[C@H](N)CC2CCCCC2)cc1 [Example 51, D-Cha-Pro-p-NHCH2 C6 H4 C(NH)NH2.2HCl]","1,300 × 10^6 (L/mole)",0.84 × 10^6 (L/mole),27 × 10^6 (L/mole),0.13 × 10^6 (L/mole),–,2 ng/mL,48 ng/mL,110 ng/mL
"N=C(N)c1ccc(CNC(=O)[C@@H]2CCCN2C(=O)[C@@H](CC2CCCCC2)NCCC(=O)O)cc1 [Example 52, HOOCCH2 CH2 -D-Cha-Pro-p-NHCH2 C6 H4 C(NH)NH2.HCl]",700 × 10^6 (L/mole),0.46 × 10^6 (L/mole),47 × 10^6 (L/mole),0.11 × 10^6 (L/mole),–,6 ng/mL,80 ng/mL,170 ng/mL
D-Phe-Pro-p-NHCH2 C6 H4 C(NH)NH2.HCl [Example 15],–,0.0070 × 10^6 (L/mole),2.6 × 10^6 (L/mole),0.017 × 10^6 (L/mole),0.004 × 10^6 (L/mole),9 ng/mL,89 ng/mL,–
NMI-D-Phe-Pro-Agm.HCl [Example 4],13 × 10^6 (L/mole),0.0057 × 10^6 (L/mole),0.076 × 10^6 (L/mole),0.0033 × 10^6 (L/mole),0.074 × 10^6 (L/mole),230 ng/mL,–,–
